For this test, the target named is human MER (528-end) (Homo sapiens (Human), UniProt Q12866). In words: HTRF Kinase Activity Biochemical Assay (KinEASE-TK). The note with it: 10 uM ATP. The essentials:
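Activity read-out is the HTRF ratio (665 nm over 620 nm emission, ×10,000; excitation 340 nm) after 1 h detection with 0.375 nM Eu3+-cryptate anti-TK antibody plus 0.062 uM SA-XL665. Preceding kinase step: human MER (528-end), biotinylated TK substrate, 1 h, room temperature.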
(In TR-FRET formats the signal depends on donor and acceptor labels being close together.)

This is an account of results in US12378224B2 (Dong-A Socio Holdings Co., Ltd., priority 2016, dated 2025).

Bounds are passed on as bounds.

Sequence of human MER (528-end) (Q12866 528-999 limits assumed): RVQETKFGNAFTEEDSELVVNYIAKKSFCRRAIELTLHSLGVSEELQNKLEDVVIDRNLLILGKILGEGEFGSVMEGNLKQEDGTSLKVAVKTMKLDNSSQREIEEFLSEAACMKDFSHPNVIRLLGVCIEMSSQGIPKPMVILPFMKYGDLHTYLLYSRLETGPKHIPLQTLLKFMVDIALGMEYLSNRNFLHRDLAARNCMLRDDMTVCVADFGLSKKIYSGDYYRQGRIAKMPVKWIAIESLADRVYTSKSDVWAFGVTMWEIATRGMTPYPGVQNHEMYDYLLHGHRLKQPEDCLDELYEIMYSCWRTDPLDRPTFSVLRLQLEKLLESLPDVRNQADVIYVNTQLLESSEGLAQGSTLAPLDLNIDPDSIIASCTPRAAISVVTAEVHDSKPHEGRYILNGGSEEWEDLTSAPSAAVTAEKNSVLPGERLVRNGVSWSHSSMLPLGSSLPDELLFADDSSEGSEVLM

In general, IC50 refers to the concentration needed to halve the response being measured. Higher therefore signals weaker potency. `COCCn1cc(-c2cnc(N)c(C(=O)N[C@@H]3CCN(C(=O)c4ccc(-c5ccccc5Cl)cc4)C3)c2)cn1` [Example 573, (R)-2-amino-N-(1-(2′-chloro-[1,1′-biphenyl]-4-carbonyl)pyrrolidin-3-yl)-5-(1-(2-methoxyethyl)-1H-pyrazol-4-yl)nicotinamide] yielded an IC50 of 10 to 100 nM.

Turning to `Nc1ncc(-c2ccc(S(N)(=O)=O)cc2)cc1C(=O)N[C@@H]1CCN(C(=O)c2ccc(-c3ccccc3Cl)cc2)C1` [Example 575, (R)-2-amino-N-(1-(2′-chloro-[1,1′-biphenyl]-4-carbonyl)pyrrolidin-3-yl)-5-(4-sulfamoylphenyl)nicotinamide], the IC50 lay in the range of 10 to 100 nM. For `CS(=O)(=O)Nc1ccc(-c2cnc(N)c(C(=O)N[C@@H]3CCN(C(=O)c4ccc(-c5ccccc5Cl)cc4)C3)c2)cc1` [Example 576, (R)-2-amino-N-(1-(2′-chloro-[1,1′-biphenyl]-4-carbonyl)pyrrolidin-3-yl)-5-(4-(methylsulfonamido)phenyl)nicotinamide] the value was 100 to 1000 nM. With `CC(C)(C)n1cc(-c2cnc(N)c(C(=O)N[C@@H]3CCN(C(=O)c4ccc(-c5ccccc5Cl)cc4)C3)c2)cn1` [Example 577, (R)-2-amino-5-(1-(tert-butyl)-1H-pyrazol-4-yl)-N-(1-(2′-chloro-[1,1′-biphenyl]-4-carbonyl)pyrrolidin-3-yl)nicotinamide], the concentration for half-maximal inhibition (IC50) lay in the range of 10 to 100 nM. `Nc1ncc(Br)cc1C(=O)N[C@@H]1CCN(C(=O)c2ccc(-c3ccc(F)cc3Cl)cc2)C1` [Example 580, (R)-2-amino-5-bromo-N-(1-(2′-chloro-4′-fluoro-[1,1′-biphenyl]-4-carbonyl)pyrrolidin-3-yl)nicotinamide] came in with an IC50 of 100 to 1000 nM. Turning to `CC(=O)Nc1ccc(-c2cnc(N)c(C(=O)N[C@@H]3CCN(C(=O)c4ccc(-c5ccc(F)cc5Cl)cc4)C3)c2)cn1` [Example 582, (R)-6′-acetamido-6-amino-N-(1-(2′-chloro-4′-fluoro-[1,1′-biphenyl]-4-carbonyl)pyrrolidin-3-yl)-[3,3′-bipyridine]-5-carboxamide], the IC50 fell in the range of 100 to 1000 nM. For the compound `Nc1ncc(-c2cncc(C(=O)O)c2)cc1C(=O)N[C@@H]1CCN(C(=O)c2ccc(-c3ccc(F)cc3Cl)cc2)C1` [Example 587, (R)-6′-amino-5′-((1-(2′-chloro-4′-fluoro-[1,1′-biphenyl]-4-carbonyl)pyrrolidin-3-yl)carbamoyl)-[3,3′-bipyridine]-5-carboxylic acid], the IC50 was in the range of 100 to 1000 nM.

In the case of `Nc1ncc(-c2ccc(C(=O)N3CCN(CCO)CC3)cc2)cc1C(=O)N[C@@H]1CCN(C(=O)c2ccc(-c3ccccc3Cl)cc2)C1` [Example 589, (R)-2-amino-N-(1-(2′-chloro-[1,1′-biphenyl]-4-carbonyl)pyrrolidin-3-yl)-5-(4-(4-(2-hydroxyethyl)piperazine-1-carbonyl)phenyl)nicotinamide], the IC50 fell in the range of 10 to 100 nM. On to `CN(C(=O)c1cc(-c2cnn(C)c2)cnc1N)[C@@H]1CCN(Cc2ccccc2)C1` [Example 623, (R)-2-amino-N-(1-benzylpyrrolidin-3-yl)-N-methyl-5-(1-methyl-1H-pyrazol-4-yl)nicotinamide], for which the IC50 is more than 1000 nM. For the compound `CN(C(=O)N1CC[C@@H](NC(=O)c2cc(-c3cnn(C)c3)cnc2N)C1)c1ccccc1` [Example 625, (R)-2-amino-N-(1-(methyl(phenyl)carbamoyl)pyrrolidin-3-yl)-5-(1-methyl-1H-pyrazol-4-yl)nicotinamide], the IC50 was more than 1000 nM. With `Nc1ncc(-c2cnn(C3CCNCC3)c2)cc1C(=O)N[C@@H]1CCN(C(CO)c2ccccc2)C1` (stereo partly drawn) [Example 629, 2-amino-N-((3R)-1-(2-hydroxy-1-phenylethyl)pyrrolidin-3-yl)-5-(1-(piperidin-4-yl)-1H-pyrazol-4-yl)nicotinamide], the IC50 is more than 1000 nM. For `Nc1ncc(-c2cnn(C3CCNCC3)c2)cc1C(=O)N[C@@H]1CCN(Cc2ccnc(Cl)c2)C1` [Example 631, (R)-2-amino-N-(1-((2-chloropyridin-4-yl)methyl)pyrrolidin-3-yl)-5-(1-(piperidin-4-yl)-1H-pyrazol-4-yl)nicotinamide], the IC50 was more than 1000 nM. For `CC(C)Cn1cc(-c2cnc(N)c(C(=O)N[C@@H]3CCN(Cc4ccccc4Cl)C3)c2)cn1` [Example 632, (R)-2-amino-N-(1-(2-chlorobenzyl)pyrrolidin-3-yl)-5-(1-isobutyl-1H-pyrazol-4-yl)nicotinamide] the value was 100 to 1000 nM; for `CN1CCN(Cc2ccc(C(=O)N3CC[C@@H](NC(=O)c4cc(-c5cnn(C)c5)cnc4N)C3)cc2)CC1` [Example 640, (R)-2-amino-5-(1-methyl-1H-pyrazol-4-yl)-N-(1-(4-((4-methylpiperazin-1-yl)methyl)benzoyl)pyrrolidin-3-yl)nicotinamide], more than 1000 nM; for `Cn1cc(-c2cnc(N)c(C(=O)N[C@@H]3CCN(C(=O)c4ccc(CN5CCN(CCO)CC5)cc4)C3)c2)cn1` [Example 641, (R)-2-amino-N-(1-(4-((4-(2-hydroxyethyl)piperazin-1-yl)methyl)benzoyl)pyrrolidin-3-yl)-5-(1-methyl-1H-pyrazol-4-yl)nicotinamide], more than 1000 nM. For `Cn1cc(-c2cnc(N)c(C(=O)N[C@@H]3CCN(C(=O)c4ccc(-c5ccc(N)cc5)cc4)C3)c2)cn1` [Example 662, (R)-2-amino-N-(1-(4′-amino-[1,1′-biphenyl]-4-carbonyl)pyrrolidin-3-yl)-5-(1-methyl-1H-pyrazol-4-yl)nicotinamide] the value was more than 1000 nM; for `Cn1cc(-c2cnc(N)c(C(=O)N[C@@H]3CCN(C(=O)c4ccc(-c5cc(F)cc(Cl)c5)cc4)C3)c2)cn1` [Example 663, (R)-2-amino-N-(1-(3′-chloro-5′-fluoro-[1,1′-biphenyl]-4-carbonyl)pyrrolidin-3-yl)-5-(1-methyl-1H-pyrazol-4-yl)nicotinamide], 10 to 100 nM; for `Cn1cc(-c2cnc(N)c(C(=O)N[C@@H]3CCN(C(=O)c4ccc(-c5cc(Cl)c(F)c(Cl)c5)cc4)C3)c2)cn1` [Example 664, (R)-2-amino-N-(1-(3′,5′-dichloro-4′-fluoro-[1,1′-biphenyl]-4-carbonyl)pyrrolidin-3-yl)-5-(1-methyl-1H-pyrazol-4-yl)nicotinamide], 100 to 1000 nM.

`Cn1cc(-c2cnc(N)c(C(=O)N[C@@H]3CCN(C(=O)c4ccc(-c5cc(F)ccc5Cl)cc4)C3)c2)cn1` [Example 667, (R)-2-amino-N-(1-(2′-chloro-5′-fluoro-[1,1′-biphenyl]-4-carbonyl)pyrrolidin-3-yl)-5-(1-methyl-1H-pyrazol-4-yl)nicotinamide] displayed an IC50 of 10 to 100 nM.

`Cn1cc(-c2cnc(N)c(C(=O)N[C@@H]3CCN(C(=O)c4cccc5c(Br)cccc45)C3)c2)cn1` [Example 669, (R)-2-amino-N-(1-(5-bromo-1-naphthoyl)pyrrolidin-3-yl)-5-(1-methyl-1H-pyrazol-4-yl)nicotinamide] had an IC50 of more than 1000 nM. In turn, `CCc1cc(CO[C@H]2CN(C(=O)c3ccc(-c4ccccc4)cc3)C[C@@H]2NC(=O)c2cc(-c3cnn(C)c3)cnc2N)ccc1C` [Example 674, N-((3S,4S)-1-([1,1′-biphenyl]-4-carbonyl)-4-((3-ethyl-4-methylbenzyl)oxy)pyrrolidin-3-yl)-2-amino-5-(1-methyl-1H-pyrazol-4-yl)nicotinamide] displayed an IC50 of more than 1000 nM.

`CCc1cc(CO[C@H]2CN(C(=O)c3cccc(-c4ccccc4)c3)C[C@@H]2NC(=O)c2cc(-c3cnn(C)c3)cnc2N)ccc1C` [Example 675, N-((3S,4S)-1-([1,1′-biphenyl]-3-carbonyl)-4-((3-ethyl-4-methylbenzyl)oxy)pyrrolidin-3-yl)-2-amino-5-(1-methyl-1H-pyrazol-4-yl)nicotinamide]: the IC50 was more than 1000 nM. In turn, `Cn1cc(-c2cnc(N)c(C(=O)N[C@@H]3CCN(C(=O)c4ccc(-c5ccc(CC#N)cc5)cc4)C3)c2)cn1` [Example 676, (R)-2-amino-N-(1-(4′-(cyanomethyl)-[1,1′-biphenyl]-4-carbonyl)pyrrolidin-3-yl)-5-(1-methyl-1H-pyrazol-4-yl)nicotinamide] had an IC50 of 100 to 1000 nM. The value for `Cn1cc(-c2cnc(N)c(C(=O)N[C@@H]3CCN(C(=O)c4ccc(-c5ccc(C(N)=O)c(F)c5)cc4)C3)c2)cn1` [Example 680, (R)-2-amino-N-(1-(4′-carbamoyl-3′-fluoro-[1,1′-biphenyl]-4-carbonyl)pyrrolidin-3-yl)-5-(1-methyl-1H-pyrazol-4-yl)nicotinamide] was 100 to 1000 nM; that for `Cn1cc(-c2cnc(N)c(C(=O)N[C@H]3CN(C(=O)c4ccc(-c5ccc(F)cc5Cl)cc4)C[C@H]3F)c2)cn1` [Example 682, 2-amino-N-((3S,4R)-1-(2′-chloro-4′-fluoro-[1,1′-biphenyl]-4-carbonyl)-4-fluoropyrrolidin-3-yl)-5-(1-methyl-1H-pyrazol-4-yl)nicotinamide] was more than 1000 nM. For the compound `COC(=O)[C@H]1C[C@@H](NC(=O)c2cc(-c3cnn(C)c3)cnc2N)CN1C(=O)c1ccc(-c2ccccc2)cc1` [Example 683, methyl (2R,4R)-1-([1,1′-biphenyl]-4-carbonyl)-4-(2-amino-5-(1-methyl-1H-pyrazol-4-yl)nicotinamido)pyrrolidine-2-carboxylate], the IC50 lay within 100 to 1000 nM. In the case of `COC(=O)[C@H]1C[C@@H](NC(=O)c2cc(-c3cnn(C)c3)cnc2N)CN1C(=O)c1cccc(-c2ccccc2)c1` [Example 684, Methyl (2R,4R)-1-([1,1′-biphenyl]-3-carbonyl)-4-(2-amino-5-(1-methyl-1H-pyrazol-4-yl)nicotinamido)pyrrolidine-2-carboxylate], the concentration for half-maximal inhibition (IC50) is more than 1000 nM. The value for `COC(=O)[C@@H]1C[C@H](NC(=O)c2cc(-c3cnn(C)c3)cnc2N)CN1C(=O)c1ccc(-c2ccccc2)cc1` [Example 685, methyl (2S,4S)-1-([1,1′-biphenyl]-4-carbonyl)-4-(2-amino-5-(1-methyl-1H-pyrazol-4-yl)nicotinamido)pyrrolidine-2-carboxylate] was more than 1000 nM.
